Experimental data from patent US12297207B2, “Maytansinoid derivatives, conjugates thereof, and methods of use” (priority 2015, dated 2025).
Read-outs that look alike come from different tables or passages of the source.

Columns and labels:
[1] = test system: T47D ductal carcinoma line (PRLR+); assay: In vitro cytotoxicity assay (CellTiter-Glo), T47D cells; type: cell-based, human; conditions: for IC50: 5 days
Method: The present example provides cytotoxicity assays for conjugates provided herein. To evaluate the ability of anti-PRLR antibodies conjugated with 63, 60, 77, and 78 to kill a PRLR expressing cell line, an in vitro cytotoxicity assay using a T47D ductal carcinoma line (ATCC, #HTB-133), which was previously determined to express >27,000 copies of human PRLR at its cell surface, was utilized.
For the assay, T47D cells were seeded onto white 96 well plates at 2,000 cells/well in media containing DMEM supplemented with 10% FBS, NEAA, and pencillin/streptomycinin (complete media). They were grown overnight at 37° C. in 5% CO2. To determine cell viability curves, the following day antibody drug conjugates, unconjugated antibodies, or free payloads were added to the cells at final serial dilutions ranging from 100 nM to 0.01 nM in complete medium and then incubated for an additional 5 days. Luciferase activity was detected after the addition of CellTiter-Glo™ reagent (Promega, G7571) to each well, which contains reagents to lyse the remaining viable cells to release their ATP, ATPase inhibitors to prevent degradation of the ATP, as well as luciferin and luciferase to catalyse the luminescent reaction. Viable cells prior to addition of CellTiter-Glo will be the only source of ATP since the dead cells in culture will not synthesis ATP and any of their released ATP will be destroyed via endogenous ATPases. Relative light units (RLUs) were measured on a Victor luminometer (PerkinElmer) and the results were determined using a four-parameter logistic equation over a 10-point response curve (GraphPad Prism). All measured values and calculated IC50 values were corrected for payload equivalents. All IC50 values are expressed in nM concentration and percent kill is reported for the highest concentration tested.

C4-2 (PSMA+) cells = assay: In vitro cytotoxicity assay (CCK8 viability), C4-2 cells; type: cell-based; conditions: Table 5, payloads only; for IC50: read-out: C4-2 IC50
Method: In this Example, the ability of various antibody-drug conjugates or their associated payloads to kill antigen-expressing tumor cells in vitro was assessed.
Ovcar3 (Muc16+) or C4-2 (PSMA+) cells were seeded in 96 well plates at 3000 (C42) cells per well in complete growth media and grown overnight. For cell viability curves, serially diluted conjugates or payloads were added to the cells at final concentrations ranging from 300 nM to 5 pM and incubated for 3 days. To measure viability, cells were incubated with CCK8 (Dojindo) for the final 1-3 hours and the absorbance at 450 nm (OD450) was determined on a Victor (Perkin Elmer). Background OD450 levels determined from digitonin ([…]) treated cells were subtracted from all wells and viability is expressed as a percentage of the untreated controls. IC50 values were determined from a four-parameter logistic equation over a 10-point response curve (GraphPad Prism). All conjugate curves and IC50 values are corrected for payload equivalents.

[2] = Table 5, payloads only, read-out: T47D IC50
[3] = Table 5, payloads only, highest concentration tested

COc1cc2cc(c1Cl)N(C)C(=O)C[C@H](OC(=O)[C@H](C)N(C)C(=O)c1ccc(N)c(Br)c1)[C@]1(C)O[C@H]1[C@H](C)[C@@H]1C[C@@](O)(NC(=O)O1)[C@H](OC)/C=C/C=C(\C)C2 [Compound 47, Maytansin-N-methyl-L-alanine-(3-bromo-4-amino)benzamide]
IC50 [1, 2]: 0.01 nM | T47D % kill [1, 3]: 72%

COc1cc2cc(c1Cl)N(C)C(=O)C[C@H](OC(=O)[C@H](C)N(C)C(=O)c1ccc(N)c(F)c1)[C@]1(C)O[C@H]1[C@H](C)[C@@H]1C[C@@](O)(NC(=O)O1)[C@H](OC)/C=C/C=C(\C)C2 [Compound 41, Maytansin-N-methyl-L-alanine-(3-fluoro-4-amino)benzamide]
IC50 [1, 2]: 0.03 nM | T47D % kill [1, 3]: 72%

COc1ccc(C(=O)N(C)[C@@H](C)C(=O)O[C@H]2CC(=O)N(C)c3cc(cc(OC)c3Cl)C/C(C)=C/C=C/[C@@H](OC)[C@@]3(O)C[C@H](OC(=O)N3)[C@@H](C)[C@@H]3O[C@@]23C)cc1N [Compound 67, Maytansin-N-methyl-L-alanine-N-(3-amino-4-methoxy)benzamide]
IC50 [1, 2]: 0.19 nM | T47D % kill [1, 3]: 71%

COc1cc2cc(c1Cl)N(C)C(=O)C[C@H](OC(=O)[C@H](C)N(C)C(=O)c1ccc(N)c(Cl)c1)[C@]1(C)O[C@H]1[C@H](C)[C@@H]1C[C@@](O)(NC(=O)O1)[C@H](OC)/C=C/C=C(\C)C2 [Compound 43, Maytansin-N-methyl-L-alanine-(3-chloro-4-amino)benzamide]
IC50 [1, 2]: 0.01 nM | T47D % kill [1, 3]: 71%

COc1ccc(C(=O)N(C)[C@@H](C)C(=O)O[C@H]2CC(=O)N(C)c3cc(cc(OC)c3Cl)C/C(C)=C/C=C/[C@@H](OC)[C@@]3(O)C[C@H](OC(=O)N3)[C@@H](C)[C@@H]3O[C@@]23C)c(N)c1 [Compound 86, Maytansin-N-methyl-L-alanine-N-(4-methoxy-2-amino)benzamide]
C4-2 % kill (C4-2 (PSMA+) cells): 90% | IC50 (C4-2 (PSMA+) cells): 0.73 nM

COc1cc2cc(c1Cl)N(C)C(=O)CC(OC(=O)C(C)N(C)C(=O)c1ccc(N)c(C)c1)C1(C)OC1C(C)C1CC(O)(NC(=O)O1)C(OC)C=CC=C(C)C2 [Compound 53, Maytansin-N-methyl-L-alanine-(3-methyl-4-amino)benzamide]
IC50 [1, 2]: 0.2 nM | T47D % kill [1, 3]: 72%

COc1cc(C(=O)N(C)[C@@H](C)C(=O)O[C@H]2CC(=O)N(C)c3cc(cc(OC)c3Cl)C/C(C)=C/C=C/[C@@H](OC)[C@@]3(O)C[C@H](OC(=O)N3)[C@@H](C)[C@@H]3O[C@@]23C)ccc1N [Compound 49, Maytansin-N-methyl-L-alanine-(3-methoxy-4-amino)benzamide]
IC50 ([1]; corrected for payload equivalents, read-out: IC50 (cytotoxicity of T47D cells)): 0.03 nM | maximum percent killing ([1]; T47D cells, highest concentration tested): 69% | IC50 [1, 2]: 0.06 nM | T47D % kill [1, 3]: 70%

COc1ccc(N)cc1C(=O)N(C)[C@@H](C)C(=O)O[C@H]1CC(=O)N(C)c2cc(cc(OC)c2Cl)C/C(C)=C/C=C/[C@@H](OC)[C@@]2(O)C[C@H](OC(=O)N2)[C@@H](C)[C@@H]2O[C@@]12C [Compound 65, Maytansin-N-methyl-L-alanine-N-(2-methoxy-5-amino)benzamide]
IC50 [1, 2]: 1.13 nM | T47D % kill [1, 3]: 72%

COc1cc2cc(c1Cl)N(C)C(=O)CC(OC(=O)C(C)N(C)C(=O)c1cc(N)ccc1F)C1(C)OC1C(C)C1CC(O)(NC(=O)O1)C(OC)C=CC=C(C)C2 [Compound 71, Maytansin-N-methyl-L-alanine-N-(2-fluoro-5-amino)benzamide]
IC50 [1, 2]: 0.73 nM | T47D % kill [1, 3]: 68%

COc1cc2cc(c1Cl)N(C)C(=O)C[C@H](OC(=O)[C@H](C)N(C)C(=O)c1cc(F)c(N)cc1F)[C@]1(C)O[C@H]1[C@H](C)[C@@H]1C[C@@](O)(NC(=O)O1)[C@H](OC)/C=C/C=C(\C)C2 [Compound 39, Maytansin-N-methyl-L-alanine-N-(2,5-difluoro-4-amino)benzamide]
IC50 [1, 2]: 0.02 nM | T47D % kill [1, 3]: 70%

COc1cc2cc(c1Cl)N(C)C(=O)C[C@H](OC(=O)[C@H](C)N(C)C(=O)c1ccc(N)c(N3CCOCC3)c1)[C@]1(C)O[C@H]1[C@H](C)[C@@H]1C[C@@](O)(NC(=O)O1)[C@H](OC)/C=C/C=C(\C)C2 [Compound 88, Maytansin-N-methyl-L-alanine-N-(3-morpholino-4-amino)benzamide]
C4-2 % kill (C4-2 (PSMA+) cells): 89% | IC50 (C4-2 (PSMA+) cells): 0.05 nM

COc1cc2cc(c1Cl)N(C)C(=O)C[C@H](OC(=O)[C@H](C)N(C)C(=O)c1cccc(N)c1)[C@]1(C)O[C@H]1[C@H](C)[C@@H]1C[C@@](O)(NC(=O)O1)[C@H](OC)/C=C/C=C(\C)C2 [Compound 73, Maytansin-N-methyl-L-alanine-N-(3-amino)benzamide]
IC50 [1, 2]: 0.57 nM | T47D % kill [1, 3]: 73%

COc1cc2cc(c1Cl)N(C)C(=O)CC(OC(=O)C(C)N(C)C(=O)c1ccc(N)c(O)c1)C1(C)OC1C(C)C1CC(O)(NC(=O)O1)C(OC)C=CC=C(C)C2 [Compound 82, Maytansin-N-methyl-L-alanine-N-(3-hydroxy-4-amino)benzamide]
C4-2 % kill (C4-2 (PSMA+) cells): 93% | IC50 (C4-2 (PSMA+) cells): 19.9 nM

COc1cc2cc(c1Cl)N(C)C(=O)CC(OC(=O)C(C)N(C)C(=O)c1ccc(N)c3cccnc13)C1(C)OC1C(C)C1CC(O)(NC(=O)O1)C(OC)C=CC=C(C)C2 [Compound 45, Maytansin-N-methyl-L-alanine-(5-amino-8-carboxyquinoline)carboxamide]
IC50 [1, 2]: 3.73 nM | T47D % kill [1, 3]: 72%

COc1cc2cc(c1Cl)N(C)C(=O)C[C@H](OC(=O)[C@H](C)N(C)C(=O)c1ccc(N)c3ncccc13)[C@]1(C)O[C@H]1[C@H](C)[C@@H]1C[C@@](O)(NC(=O)O1)[C@H](OC)/C=C/C=C(\C)C2 [Compound 55, Maytansin-N-methyl-L-alanine-(8-amino-5-carboxyquinoline)carboxamide]
IC50 [1, 2]: 0.18 nM | T47D % kill [1, 3]: 75%

COc1cc2cc(c1Cl)N(C)C(=O)C[C@H](OC(=O)[C@H](C)N(C)C(=O)c1cc(N)cc(F)c1)[C@]1(C)O[C@H]1[C@H](C)[C@@H]1C[C@@](O)(NC(=O)O1)[C@H](OC)/C=C/C=C(\C)C2 [Compound 69, Maytansin-N-methyl-L-alanine-N-(3-amino-5-fluoro)benzamide]
IC50 [1, 2]: 0.39 nM | T47D % kill [1, 3]: 73%

COc1cc2cc(c1Cl)N(C)C(=O)C[C@H](OC(=O)[C@H](C)N(C)C(=O)c1ccc(N)cc1C)[C@]1(C)O[C@H]1[C@H](C)[C@@H]1C[C@@](O)(NC(=O)O1)[C@H](OC)/C=C/C=C(\C)C2 [Compound 51, Maytansin-N-methyl-L-alanine-(2-methyl-4-amino)benzamide]
IC50 [1, 2]: 0.49 nM | T47D % kill [1, 3]: 72%

COc1cc2cc(c1Cl)N(C)C(=O)C[C@H](OC(=O)[C@H](C)N(C)C(=O)c1ccc(N)c(NC(C)=O)c1)[C@]1(C)O[C@H]1[C@H](C)[C@@H]1C[C@@](O)(NC(=O)O1)[C@H](OC)/C=C/C=C(\C)C2 [Compound 90, Maytansin-N-methyl-L-alanine-N-(3-acetamido-4-amino)benzamide]
C4-2 % kill (C4-2 (PSMA+) cells): 86% | IC50 (C4-2 (PSMA+) cells): > 100 nM

COc1cc2cc(c1Cl)N(C)C(=O)C[C@H](OC(=O)[C@H](C)N(C)C(=O)c1ccccc1N)[C@]1(C)O[C@H]1[C@H](C)[C@@H]1C[C@@](O)(NC(=O)O1)[C@H](OC)/C=C/C=C(\C)C2 [Compound 84, Maytansin-N-methyl-L-alanine-N-(2-amino)benzamide]
C4-2 % kill (C4-2 (PSMA+) cells): 88% | IC50 (C4-2 (PSMA+) cells): 0.07 nM

COc1cc2cc(c1Cl)N(C)C(=O)C[C@H](OC(=O)[C@H](C)N(C)C(=O)c1ccc(N)c(S(C)(=O)=O)c1)[C@]1(C)O[C@H]1[C@H](C)[C@@H]1C[C@@](O)(NC(=O)O1)[C@H](OC)/C=C/C=C(\C)C2 [Compound 80, Maytansin-N-methyl-L-alanine-N-(3-methylsulfonyl-4-amino)benzamide]
C4-2 % kill (C4-2 (PSMA+) cells): 91% | IC50 (C4-2 (PSMA+) cells): 1.3 nM
